# Source: patent publication US20050256081A1, “Tetracycline derivatives for the treatment of ocular pathologies” (priority 2004, published 2005)
# Where “and” joins values, the source holds several entries; their conditions need not be identical. Identical values can stand only once.
# Tests used:
# [1] = system: corneal neovascularization; assay: Silver nitrate cauterization corneal neovascularization model, single agents (Example 5); type: in vivo, Long Evans pigmented rats; conditions: for NV area compared to the control group (statistical significance): GLM with Tukey's studentized range test, significance at p≦0.05; for Percent Area Of Neovascularization Mean ± SD: topical two times daily for 7 days, 7th day, ascomycin 50 μg/ml, flurbiprofen 0.03%, doxycycline 20 mg/ml, LMWH 10 mg/ml, triamcinolone acetonide 4 mg/ml; for neovascularization on digitally enhanced slit lamp photograph: seven days after induction of corneal burn, FIG. 11
# [2] = system: corneal neovascularization; assay: Silver nitrate cauterization corneal neovascularization model, two drug combinations (Example 3); type: in vivo, Long Evans rats; conditions: for effect on corneal neovascularization, individual agents: flurbiprofen 0.03% w/v, LMWH 10 mg/ml, administered as individual agents, data not shown
# Description: Artificial corneal burns were induced in thirty-two eyes belonging to thirty-two Long Evans rats to determine the effects of doxycycline or another tetracycline derivative and low molecular weight heparin, doxycycline or another tetracycline derivative, and flurbiprofen, or flurbiprofen and low molecular weight heparin, on corneal neovascularization. All the eyes were examined to exclude any eyes with corneal scars and/or neovascularization prior to induction.
# (§1) Neovascularization was induced in all eyes using silver nitrate cauterization. The animals were first anesthetized by intraperitoneal injection of a mixture of ketamine hydrochloride (25 mg/kg) with xylazine hydrochloride (5 mg/kg). The cornea was then anesthetized by a drop of 0.5% proparacaine and allowed to dry.
# Group 1 (number of animals, n=8) received a 1:1 combination of 0.03% flurbiprofen sodium ophthalmic solution (Allergan, Irvine CA) and 10 mg/ml low molecular weight heparin (Enoxaparin, Aventis Pharmaceuticals Inc., Bridgewater N.J.); an actual concentration of 0.015% flurbiprofen with 5 mg/ml low molecular weight heparin. […] Group 3 (n=8) received a 1:1 combination of 20 mg/ml doxycycline and 10 mg/ml low molecular weight heparin; an actual concentration of 10 mg/ml doxycycline with 5 mg/ml low molecular weight heparin. Group 4 (n=8) received balanced salt solution (control). The drops were applied topically immediately after cauterization; treatments were administered two times per day for seven days.
# (§2) The presence of new vessels (neovascularization) and the extent of new vessel formation was assessed by slit lamp photography and histology. Inhibition of vessel proliferation was evaluated by measuring vessel progression from the outer cornea (corneal limbus) into the comea. As previously described, it will be appreciated that any reduction of new vessel proliferation and/or regression of existing vessels is therapeutic, and that complete inhibition and/or regression is not required, and also that reduction includes regression of existing vessels.
# The extent of corneal neovascularization was determined by slit lamp microscopy with photography (SL-7E, Topcon, Tokyo Japan) on day seven after cauterization. The animals were euthanized in a carbon dioxide chamber under deep general anesthesia. […]
# Corneal neovascularization was assessed by scanning (Cano scan 9900F, Canon, Tokyo Japan) the slit lamp photographs into high resolution digital images. […] The percentage area of the cornea covered by the corneal scar in each eye was also determined. […]
# Statistical analysis was performed using Statistical Analysis System (SPSS 11.5) software. The difference between the groups was determined using Mann-Whitney U Analysis test; a p value less than 0.05 was considered significant.
# [3] = system: corneal neovascularization; assay: Inhibition of corneal neovascularization after silver nitrate/potassium nitrate corneal burn, graded by slit lamp photography and histology (Example 1); type: in vivo, rat; conditions: agent alone, topically applied twice a day; doxycycline about 1 to about 20 mg/ml, low molecular weight heparin about 10 mg/ml, triamcinolone about 4 mg/ml; compared to controls
# Procedure: Artificial corneal burns were induced in rat eyes to determine the effects of doxycycline, steroids, and low molecular weight heparin, alone and in combinations, on corneal neovascularization.
# The presence of new vessels (neovascularization) and the extent of new vessel formation was assessed by split lamp photography and histology. Inhibition of vessel proliferation was evaluated by measuring vessel progression from the outer cornea (corneal limbus) into the cornea. A numerical rating system was used to quantitate the degree of inhibition (+, ++, and +++ inhibition), with “+ inhibition” indicating inhibition one-third of the distance from the limbus of the cornea to the center; “++ inhibition” indicating inhibition two-thirds of the distance from the limbus to the center; “+++ inhibition” indicating complete inhibition of vessels between the limbus and the center; and the designation “± inhibition” indicating an intermediate degree of inhibition (e.g, less than +, ++, or +++) .
# [4] = system: corneal neovascularization; assay: Silver nitrate cauterization corneal neovascularization model, doxycycline concentrations and pH (Example 4); type: in vivo, Long Evans pigmented rats; conditions: for Percent area of neovascularization (Mean ± SD): topical two times per day for seven days, n=6, monohydrate
# Description: Thirty-six eyes belonging to thirty-six male Long Evans pigmented rats (200 g to 250 g) were divided into […] groups. Treated eyes were topically administered doxycycline at the following concentrations and having the indicated pH values: 0.05%^w/v (pH 3.3), 0.1%^w/v (pH 3.1), 1%^w/v (pH 2.3), 2%^w/v (pH 2.1), 2%^w/v (adjusted to pH of 7.4). One eye of each animal served as a treated eye and the other eye served as a non-treated control eye. Artificial corneal bums were induced. All the eyes were examined to exclude any eyes with corneal scars and/or neovascularization prior to induction.
# as §1
# as §2, with “cornea.” for “comea.”, “indudes” for “includes”
# Neovascularization was evaluated by an examiner who was blinded as to the treatment groups to minimize the observer bias.
# The animals were euthanized in a carbon dioxide chamber under deep general anesthesia. The eyes were enucleated and fixed in 10% formaldehyde.
# Corneal neovascularization was assessed by scanning (Cano scan 9900F, Canon, Tokyo Japan) the slit lamp photographs into high resolution digital images. […] The percentage area of the cornea covered by the corneal scar in each eye was also determined. A drawing of corneal blood vessels was made to compare with digital photos and ensure that no vascular area was omitted during calculation of percent area.
# Statistical analyses were performed using each animal as an experimental unit with Statistical Analysis System (SPSS 11.5) software. Kruscal-Vallis and Mann-Whitney U Analysis was conducted and treatment means were separated at p<0.05 with least significant difference (LSD) test. A p value <0.05 was considered significant.
# For histopathologic evaluation, sedated animals were euthanized with inhaled CO2 and enucleation was performed immediately. […] The eyes were prepared for histological examination using 10% formaldehyde. […] The corneas were then soaked in xylene and paraffin, and later embedded in paraffin and cut at […] for staining with hematoxylin and eosin (H&E) for light microscopy.
# Light microscopic examination was performed on every microscopic section.
compound,measurement,setting,value
CC[C@@H]1/C=C(\C)C[C@H](C)C[C@H](OC)[C@H]2O[C@@](O)(C(=O)C(=O)N3CCCC[C@H]3C(=O)O[C@H](/C(C)=C/[C@@H]3CC[C@@H](O)[C@H](OC)C3)[C@H](C)[C@@H](O)CC1=O)[C@H](C)C[C@@H]2OC [ascomycin],NV area compared to the control group (statistical significance),[1],no statistically significant differences
same,Percent Area Of Neovascularization Mean ± SD,[1],56.0%±22.4%
same,Percent Area Of Neovascularization Mean ± SD,[1]; listed as Ascomycin,56.0 ± 22.4%
low molecular weight heparin,"effect on corneal neovascularization, individual agents",[2],did not significantly decrease corneal neovascularization
same,inhibition of neovascularization,[3],+
same,NV area compared to the control group (statistical significance),[1],no statistically significant differences
same,Percent Area Of Neovascularization Mean ± SD,[1],66.7%±9.9% and 66.7 ± 9.9%
"CC(C(=O)[O-])c1ccc(-c2ccccc2)c(F)c1.O.O.[Na+] (racemic) [flurbiprofen, sodium (±)-2-(2-fluoro-4-biphenylyl)-propionate dihydrate]","effect on corneal neovascularization, individual agents",[2],did not significantly decrease corneal neovascularization
same,NV area compared to the control group (statistical significance),[1],no statistically significant differences
same,neovascularization on digitally enhanced slit lamp photograph,[1],neovascularization is quite prominent
same,Percent Area Of Neovascularization Mean ± SD,[1]; dihydrate,50.5%±18.7%
same,Percent Area Of Neovascularization Mean ± SD,"[1]; listed as Flurbiprofen, dihydrate",50.6 ± 18.7%
"CC1c2cccc(O)c2C(=O)C2=C(O)C3(O)C(=O)C(C(N)=O)=C(O)C(N(C)C)C3C(O)C21.O (centres unmarked) [doxycycline, 4-(dimethylamino)-1,4,4a,5,5a,6,11,12a-octahydro3,5,10,12,12a-pentahydroxy-6-methyl-1,11-dioxo-2-naphthacenecarboxamide monohydrate]","effect on corneal neovascularization, individual agent",[2]; doxycycline administered at 10 mg/ml,not when administered at 10 mg/ml
same,"effect on corneal neovascularization, individual agent",[2]; doxycycline administered at 20 mg/ml,did significantly inhibit
same,"histology (H&E), new vessels and inflammatory cells","[4]; 0.05% doxycycline, FIG. 8A",new vessels and inflammatory cells through the entire corneal stroma
same,Percent area of neovascularization (Mean ± SD),"[4]; 0.05% w/v doxycycline, pH 3.3, listed as Doxycycline",69.83 ± 17.98%
same,Percent area of neovascularization (Mean ± SD),"[4]; 0.05% w/v doxycycline, pH 3.3",69.8±17.9%
same,"histology (H&E), new vessels and inflammatory cells","[4]; 0.1% doxycycline, FIG. 8B",new vessels and inflammatory cells through the entire corneal stroma
same,Percent area of neovascularization (Mean ± SD),"[4]; 0.1% w/v doxycycline, pH 3.1, listed as Doxycycline",64.48 ± 14.04%
same,Percent area of neovascularization (Mean ± SD),"[4]; 0.1% w/v doxycycline, pH 3.1",64.5±14.0%
same,"histology (H&E), new vessels and inflammatory cells","[4]; 1% doxycycline, FIG. 8C",inflammatory cells and there was neovascularization in the stroma far from the corneal burn
same,Percent area of neovascularization (Mean ± SD),"[4]; 1% w/v doxycycline, pH 2.3, listed as Doxycycline",56.35 ± 20.84%
same,Percent area of neovascularization (Mean ± SD),"[4]; 1% w/v doxycycline, pH 2.3",56.3±20.8%
same,"histology (H&E), new vessels and inflammatory cells","[4]; 2% doxycycline adjusted to a substantially neutral pH, FIG. 8E",fewer inflammatory cells and less neovascularization in the stroma than eyes administered 1% doxycycline
same,"histology (H&E), new vessels and inflammatory cells","[4]; 2% doxycycline not pH adjusted, FIG. 8D",fewer inflammatory cells and less neovascularization in the stroma than eyes administered 1% doxycycline
same,"mean percentage area of neovascularization, 2% doxycycline pH neutralized compared with 2% doxycycline not adjusted for pH","[4]; 2% doxycycline, pH neutralized",significantly less
same,Percent area of neovascularization (Mean ± SD),"[4]; 2% w/v doxycycline adjusted to pH 7.4, listed as Doxycycline",36.2 ± 4.3%
same,Percent area of neovascularization (Mean ± SD),[4]; 2% w/v doxycycline adjusted to pH 7.4,36.2±4.3%
same,Percent area of neovascularization (Mean ± SD),"[4]; 2% w/v doxycycline, pH 2.1 (not adjusted for pH), listed as Doxycycline",54.78 ± 5.95%
same,Percent area of neovascularization (Mean ± SD),"[4]; 2% w/v doxycycline, pH 2.1 (not adjusted for pH)",54.7±5.9%
same,inhibition of neovascularization,[3],+
same,NV area compared to the control group (statistical significance),[1],significant reduction
same,neovascularization on digitally enhanced slit lamp photograph,[1],neovascularization is less prominent than in control group
same,Percent Area Of Neovascularization Mean ± SD,"[1]; listed as Doxycycline, monohydrate",35.5 ± 29.1%
same,Percent Area Of Neovascularization Mean ± SD,[1]; monohydrate,35.5%±29.1%
